# Measurements as given in US11484536B2, “Method of treating metastatic cancer in a subject with a protein inhibitor” (City University of Hong Kong, priority 2020, dated 2022).
# “Also recorded” adds a separate entry of the source.
# Tests used:
# [1] = test system: HeLa, A549, or MDA-MB-231 cells; assay: Cytotoxicity of 6J-1 by PI staining and living cell number; type: cell-based
# Description: FIG. 24A is a bar chart showing the percentage of cell death of HeLa cells treated with or without 6J-1 at the indicated concentrations for 24 or 48 h. FIG. 24B is a bar chart showing the percentage of cell death of A549 cells treated with or without 6J-1 at the indicated concentrations for 24 or 48 h. FIG. 24C is a bar chart showing the percentage of cell death of MDA-MB-231 cells treated with or without 6J-1 at the indicated concentrations for 24 or 48 h.
# FIG. 25A is a line chart showing the number of HeLa cells treated with or without 6J-1 at the indicated concentrations for 0, 24 or 48 h. FIG. 25B is a line chart showing the number of MDA-MB-231 cells treated with or without 6J-1 at the indicated concentrations for 0, 24 or 48 h. FIG. 25C is a line chart showing the number of A549 cells treated with or without 6J-1 at the indicated concentrations for 0, 24 or 48 h.
# The cytotoxicity of 6J-1 on different cancer cell lines has been examined by PI staining, and the cell number of living cells was quantified as well. As shown in FIGS. 24A-24C and 25A-25C, 6J-1 is non-cytotoxic to HeLa, A549, or MDA-MB-231 cells at concentrations of 0.01-10 μM. Even at a concentration of as high as 100 μM, there were over 80% of the 6J-1-treated cells remained alive.
# [2] = test system: 4T1 mouse breast cancer cells; assay: Spontaneous cancer mouse model, fat pad injection of 4T1 cells into nude mice; conditions: 6J-1 30 mg/kg, oral, every day, 4 weeks
# Description: FIG. 5A is a schematic diagram showing a method for determining the anti-metastatic activity of V1 in female nude mice with their fat pads injected with 4T1 cells, where V1 is administered to the mice via an oral gauge. FIG. 5B is a series of optical images showing the excised lungs of the mice treated with a buffer or V1 (15 or 30 mg/kg, daily) via the oral gauge for 4 weeks. FIG. 5C is a line plot showing the number of tumor nodules in the excised lungs against different concentrations of V1.
# FIG. 29A is a series of optical images showing the excised lungs of female nude mice treated with a buffer or 6J-1 (30 mg/kg, oral delivery, daily) for 4 weeks. FIG. 29B is a line plot showing the number of tumor nodules in the excised lungs of the mice of FIG. 29A.
# First, we studied V1's anti-metastatic effects in a spontaneous cancer mouse model by fat pad injecting 4T1 mouse breast cancer cells into nude mice (FIG. 5A). After tumors were palpable (˜5 mm, around day 9), the mice were randomly divided into three groups (six mice per group) orally treated with or without V1 (15 or 30 mg/ml) every day. After 4 weeks, the mice were sacrificed; the primary tumors and lungs of the mice were harvested for analysis.
# [3] = test system: A549 cells; assay: Invasion of cancer cells treated with 6J-1; type: cell-based; conditions: 6J-1 1 μM
# Description: FIG. 28 is a pair of microscopic images showing the invasion of A549 cells treated with or without 6J-1 (1 μM).
# (§1) The inhibitory effect of 6J-1 on colony formation of several cancer cell lines, including 4T1, A549, HCCLM3, and HepG2 has been examined. […] Overall, 6J-1 is found to be as potent as V1.
# [4] = test system: HeLa cells; assay: LC3-II and p62 accumulation immunoblot; type: cell-based
# Description: FIG. 12A is a synthetic scheme of a V1 analog carrying a clickable terminal alkynyl group. FIG. 12B is a synthetic scheme of azide-biotin. FIG. 12C is a synthetic scheme of Vi-biotin.
# FIG. 23A is a schematic diagram illustrating the structure of 6J-1.
# Subsequently, biotin-V1 was administered to HeLa cell extracts, the V1 binding complex was purified with streptavidin beads, and subjected to mass analysis. There were 85 potential V1 binding proteins identified in three independent experiments with high fidelity (FIG. 13A). Among them, 32 proteins were clustered in endocytosis and vesicle-mediated transport pathways using KOBAS online software.
# In this example, a 6-morpholino-1,3,5-triazine derivative, 6J-1 was synthesized and used as an exemplary example to illustrate the inhibitory effect of 6-morpholino-1,3,5-triazine derivatives on endosomal trafficking and metastasis. As illustrated above, the induction of accumulation of LC3-II and p62 by biotin-V1 would accompany with the induction of vacuoles as well as the inhibition of transferrin degradation (see Example 4).
# [5] = test system: 4T1, A549, HCCLM3, and HepG2; assay: Colony formation of cancer cell lines; type: cell-based; conditions: indicated concentrations
# Description: FIG. 26 is a series of optical images showing colony formation of 4T1, A549, HCCLM3, and HepG2 cells treated with or without 6J-1 at the indicated concentrations.
# as §1
# [6] = test system: A549 and HepG2 cells; assay: Migration of cancer cells treated with 6J-1; type: cell-based; conditions: 6J-1 1 μM
# Description: FIG. 27A is a pair of microscopic images showing the migration of A549 cells treated with or without 6J-1 (1 μM). FIG. 27B is a series of microscopic images showing the migration of HepG2 cells treated with or without V1 (1 μM) or 6J-1 (1 μM).
# as §1
# [7] = test system: 4T1, 4T07, and MDA-MB-231 cells; assay: Trans-well migration assay; type: cell-based, human or mouse; conditions: indicated concentrations, 18 h, compared with V1
# Description: FIG. 2A is a series of microscopic images and bar charts showing the migration of 4T1, 4T07, and MDA-MB-231 cells in transwell plates in the presence or absence of V1 (1 μM). FIG. 2B is a series of microscopic images and bar charts showing the invasion of 4T1, 4T07, and MDA-MB-231 cells in invasion chambers in the presence or absence of V1 (1 μM). FIG. 2C is a series of optical images and a bar chart showing the closure of a scratch-wound plated with 4T1 cells, treated with or without V1 (1 μM), after 0, 24, and 48 h. FIG. 2D is a series of optical images and a bar chart showing the closure of a scratch-wound plated with 4T07 cells, treated with or without V1 (1 μM), after 0, 24, and 48 h. FIG. 2E is a series of microscopic images showing the migration of 4T07 cells in transwell plates in the presence or absence of V1 or LA at indicated concentrations after 18 h. […]
# In this example, the cytotoxicity and the anti-migration effects of V1 are compared with latrunculin A (LA), an F-actin destabilizer. […] The breast cancer cells were placed on the upper chamber of the transwell plates or invasion chambers coated with Matrigel in the presence or absence of V1, after 18 h of incubation, the cells at the lower chamber were stained with crystal violet and quantified. […]
# [8] = test system: HeLa cells; assay: Focal adhesion dynamics after nocodazole release (Vinculin puncta); type: cell-based; conditions: nocodazole treatment
# Description: The indicated time points represent at which NOC was removed from the HeLa cells, followed by staining the cells with anti-Vinculin antibody and Phalloidin. […] The indicated time points of FIGS. 3B and 3C represent at which the HeLa cells were released from cold arrest, followed by being stained with antibodies against EEA1 or LAMP1.
# Focal adhesion (FA) dynamics is a key process during cell migration and therefore the effects of V1 treatment on spatiotemporal regulation of FA dynamics have been assessed. HeLa cells were plated on cover slides at 24-well plates and treated with nocodazole (NOC) in the presence or absence of V1 (1 μM). At indicated times, after removing NOC, the cells were stained with anti-Vinculin antibody and Phalloidin, and the Vinculin puncta were quantified.
# [9] = biological target: T1, recombinant CapZβ-CapZα heterodimer (Homo sapiens, UniProt P47756); assay: Streptavidin pulldown with purified recombinant CapZα and CapZβ; type: binding; conditions: in vitro
# T1 construct: His6
# Description: FIG. 14D is a pair of immunoblots of purified CapZα and CapZβ recombinant proteins after incubated with Biotin-V1. FIG. 14E is a CapZβ immunoblot of lysate of HeLa cells treated with biotin or Biotin-V1.
# The expression of these genes in HeLa cells were knocked out by CRISPR/Cas9 to assess whether the ability of V1 inducing vacuole formation or endocytosis arrest would be affected by these knockdowns. […] CapZα and CapZβ are the α and β subunits of the actin capping protein (CP), also called CapZ, and the CapZβ-CapZα heterodimeric complex normally binds to the barbed ends of actin filaments to prevent further filament elongation. To investigate whether biotin-V1 or biotin alone would be able to bind with the CapZβ-CapZα heterodimeric complex, the inventors have incubated biotin or bioin-V1 with purified His6-CapZα and His6-CapZβ recombinant proteins, or purified CapZα and CapZβ proteins, followed by subjecting the mixture to streptavidin pulldown. The streptavidin pulldowns were analyzed by His6 immunoblotting, coomassie blue staining or CapZβ immunoblotting. […] In addition, in another experiment, HeLa cells were treated with biotin or biotin-V1 and the lysate thereof was incubated with streptavidin beads, followed by subjecting to streptavidin pulldown.
structure (smiles),measurement,setting,value
OCCOCCN(c1ccccc1)c1nc(N/N=C/c2cccc(I)c2)nc(N2CCOCC2)n1 [6J-1],treated cells remained alive,[1]; 100 μM,over 80%
same,cytotoxicity,"[1]; 0.01-10 μM, 24 or 48 h",non-cytotoxic
same,metastasis of 4T1 cells (tumor nodules in the lungs),[2],significantly inhibited the metastasis of 4T1 cells
same,invasion of cancer cells,[3],capable of inhibiting migration and invasion of cancer cells
same,accumulation of LC3-II and p62,[4],highly comparable result as V1; also recorded: induces comparable accumulation of LC3-II and p62 in HeLa cells as V1
same,colony formation,[5],inhibitory on the colony formation of all the aforementioned cell lines in a dose dependent manner
same,migration of cancer cells,[6],capable of inhibiting migration and invasion of cancer cells
"C/C1=C/C(=O)O[C@@H]2C[C@@H](CC[C@H](C)/C=C\C=C\CC1)O[C@@](O)([C@@H]1CSC(=O)N1)C2 [LA, latrunculin A]",migration of 4T07 cells,[7],much lower effect on the migration of 4T07 cells at similar concentrations of V1
"COC(=O)Nc1nc2ccc(C(=O)c3cccs3)cc2[nH]1 [NOC, nocodazole]",effect on microtubules and formation of FAs,[8],depolymerized the microtubules and stabilized the formation of FAs
O=C(O)CCCC[C@@H]1SC[C@@H]2NC(=O)N[C@@H]21 [biotin],interaction with recombinant CapZβ-CapZα heterodimer,[9],not biotin alone
